From patent publication US5955053A, “Metal chelates as pharmaceutical imaging agents, processes of making such and uses thereof” (Emory University, priority 1996, dated 1999)
Where two headings read alike, the source gives them in different places. Values belong to the compound of their own block, whether it stands above or below them.

What was measured:
[1] = Renal clearance / renal excretion in rats (statements in words); type: in vivo, rat; conditions: for Renal clearance of DD-EC compared to LL-EC: vs LL-isomer
Method: (§1) Tracheostomy was performed in an anesthetized rat and the left jugular vein was cannulated with one piece of PE-50 tubing for injection of the ^99m Tc radiopharmaceutical. The bladder was catheterized utilizing heat flared PE-50 tubing for urine collection. A bolus injection of the radiopharmaceutical (400-500 μCi/0.25 ml) was given and the rat was imaged (1 frame/10 s) for 22 minutes (130 frames) using a gamma camera. Each animal was sacrificed at the conclusion of the dynamic study and simultaneous static images of the isolated lungs, heart, liver, spleen, stomach, kidneys, bowel and bladder with urine were acquired as well as a static image of the rat carcass without the organs. Total counts for the injected dose were determined from the sum of the isolated organ counts and the carcass counts decay corrected to the time of organ imaging. Regions of interest were drawn around each organ to determined the percent injected dose in each organ.

[2] = physiological pH; cited from earlier work
[3] = Biodistribution in normal rats; type: in vivo, rat; conditions: ^99m Tc
Method: as §1, with “A bolus injection of the radiopharmaceutical (400-500 μCi/0.25 ml) was given and the rat was imaged (1 frame/10 s) for 22 minutes (130 frames) using a gamma camera.” left out

[4] = Normal volunteer studies: plasma clearance, urinary excretion and imaging; type: in vivo, human; conditions: humans; for Clearance rate (EC/OIH): ± spread as printed
Method: ^99m Tc LL-EC, DD-EC and DL-EC were each evaluated in three normal male volunteers. The HPLC purified complexes and phosphate-buffered saline (pH 7.0) were passed through a SEP-PAK Plus C18 cartridge (primed with 1 ml ethanol) and a sterile Millex-GS 0.22 μm filter unit into a sterile, pyrogen-free empty vial. The final concentration was ~2.0 mCi/2.5 ml and the final pH ranged from 5.7 to 7.4. Test samples of each complex were sterile and pyrogen free. Approximately 2 mCi of each ^99m Tc complex were coinjected with 200 μCi of I-131 OIH and plasma samples were obtained at 5, 10, 15, 20, 30 45, 60 and 90 minutes postinjection. The plasma clearances of I-131 OIH and each EC complex were determined using the single injection, two-compartment model of Sapirstein et al., Am. J. Physiol. 181:330-336. The volunteers voided at 30, 90 and 180 minutes postinjection to determine the percent dose in the urine at each time period. A urine sample from the 30 minute urine collection was obtained for HPLC analysis from one of the normal volunteers and analyzed for each complex. One volunteer was imaged with each complex using a simultaneous acquisition with a 20% window centered over the 363 KeV photopeak of I-131 and a second 20% window over the 140 KeV photopeak of ^99m Tc. Data were acquired in a 128×128 matrix using a three phase dynamic acquisition: phase 1 consisted of 24 two second frames, phase 2 consisted of 16 fifteen second frames and phase 3 consisted of 40 thirty second frames. Data were acquired using a general Electric (Milwaukee, Wis.) Star-Cam computer fitted with a high energy collimator. All studies were performed with the approval of the Human Investigations Committee and a signed consent form was obtained.

[5] = Stability of metal chelates; type: physicochemical
[6] = in vivo; cited from earlier work
[7] = mice and baboons; cited from earlier work
[8] = mice; cited from earlier work
[9] = normal volunteers; increases in renal failure; cited from earlier work
[10] = % of that of OIH; cited from earlier work
[11] = cited from earlier work
[12] = cited from earlier work; remark: listed apart in the source
[13] = in vivo; cited from earlier work; remark: listed apart in the source
[14] = in vivo; cited from earlier work; remark: listed apart in the source
[15] = in vivo; cited from earlier work; remark: listed apart in the source
[16] = cited from earlier work; remark: listed apart in the source

Renal clearance of DD-EC compared to LL-EC [1]: superior to L,L-EC in rats
Renal clearance / excretion compared to MAG3 ([1]; vs ^99m Tc MAG3, listed as DD-EC): significantly higher
Biodistribution: Bladder ([3]; 22 minutes post injection): 63.2% of total activity
Biodistribution: Carcass ([3]; 22 minutes post injection): 25.4% of total activity
Biodistribution: Intestines ([3]; 22 minutes post injection): 2.6% of total activity
Biodistribution: Kidneys ([3]; 22 minutes post injection): 5.4% of total activity
Biodistribution: Liver ([3]; 22 minutes post injection): 2.9% of total activity
Biodistribution: Stomach ([3]; 22 minutes post injection): < 1% of total activity
Clearance rate (EC/OIH) [4]: 82 ±8%
Compound: O=C(O)[C@@H](CS)NCCN[C@H](CS)C(=O)O (99mTc complex, metal not drawn) [D,D-EC, D,D-ethylenedicysteine]
Renal clearance of DD-EC compared to LL-EC ([1]; listed as DD-EC): significantly higher than that of its LL-isomer
Renal clearance / excretion compared to MAG3 ([1]; vs ^99m Tc MAG3): more rapid renal clearance than ^99m Tc MAG3
Dianionic form [2]: 80%
Monoanionic form [2]: 20%
Imaging properties [4]: excellent imaging properties
Rate of excretion in the urine [4]: excreted at essentially the same rate in the urine

Compound: CC(C)(S)C(=O)NCCCNC(=S)NCCC(=O)O [(Me)2 -TAPTU-EtCOOH, dimethylthioacetamidepropylthiourea-ethylCOOH]
Stability compared with corresponding thioacetamidethiourea derivative [5]: greater stability than the corresponding thioacetamidethiourea derivative
Stability compared with corresponding thioacetamidethiourea derivative ([5]; listed as dimethyl-TAPTU-EtCOOH): more stable than the corresponding thioacetamide-thiourea derivative

Biodistribution: Bladder ([3]; 22 minutes post injection): 45.6% of total activity
Biodistribution: Carcass ([3]; 22 minutes post injection): 22.6% of total activity
Biodistribution: Intestines ([3]; 22 minutes post injection): 1.8% of total activity
Biodistribution: Kidneys ([3]; 22 minutes post injection): 24.4% of total activity
Biodistribution: Liver ([3]; 22 minutes post injection): 4.5% of total activity
Biodistribution: Stomach ([3]; 22 minutes post injection): < 1% of total activity
Clearance rate (EC/OIH) [4]: 70 ±3%
Compound: O=C([O-])[C@H](C[S-])NCCN[C@@H](CS)C(=O)[O-].[O]=[Tc+3] [L,L-EC, L,L-ethylenedicysteine, reference compound]
Dianionic form [2]: 80%
Monoanionic form [2]: 20%
Excretion by the kidneys [6]: excreted rapidly and efficiently by the kidneys
Comparison to enantiomer DD-EC [7]: superior to the enantiomer ^99m Tc DD-EC
Pharmacokinetic properties relative to OIH and MAG3 [7]: more closely approached those of OIH than the properties of MAG3
Rate of excretion in the urine [4]: excreted at essentially the same rate in the urine
Excretion into the urine [8]: rapidly and efficiently excreted into the urine in mice

Biodistribution: Bladder ([3]; 22 minutes post injection): 57% of total activity
Biodistribution: Carcass ([3]; 22 minutes post injection): 14% of total activity
Biodistribution: Intestines ([3]; 22 minutes post injection): 5% of total activity
Biodistribution: Kidneys ([3]; 22 minutes post injection): 23% of total activity
Biodistribution: Liver ([3]; 22 minutes post injection): 1% of total activity
Biodistribution: Stomach ([3]; 22 minutes post injection): < 1% of total activity
Compound: O=C([O-])CN=C([O-])CN=C([O-])CN=C([O-])C[S-].[O]=[99Tc+3] [MAG3, technetium-99m (^99m Tc) mercaptoacetyltriglycine, reference compound]
Transport into the small intestine via the hepatobiliary system [9]: a small percentage
Clearance relative to OIH [10]: 50-60%
Plasma-protein binding [11]: very high
Clearance compared to DTPA ([12]; in vivo): higher clearance

Compound: C[C@H](NC(=O)CNC(=O)CS)C(=O)NCC(=O)O [MAGAG, mercaptoacetylglycylalanylglycine]
Comparison of diastereomers to MAG3 [13]: one diastereomer comparable and the other considerably inferior

Compound: O=C(O)CNC(=O)c1ccccc1[131I] [OIH, ^131 I-orthohippurate]
Clearance relative to PAH ([12]; % of the clearance of PAH): 83%

Rate of excretion in the urine [4]: slower rate of excretion
Clearance rate (EC/OIH) [4]: 40 ±5%
Compound: D,L-ethylenedicysteine [DL-EC]

Removal by the kidneys [1]: rapid and selective removal
Uptake in other major organs [1]: only trace amounts
Biodistribution: Bladder ([3]; 30 minutes post injection): 58.2% of total activity
Biodistribution: Carcass ([3]; 30 minutes post injection): 19.8% of total activity
Biodistribution: Intestines ([3]; 30 minutes post injection): 6.4% of total activity
Biodistribution: Kidneys ([3]; 30 minutes post injection): 7.2% of total activity
Biodistribution: Liver ([3]; 30 minutes post injection): 4.8% of total activity
Biodistribution: Stomach ([3]; 30 minutes post injection): 1.9% of total activity
Compound: L-cysteinylethylenepyridine carboxamide [L-CEPIC]
Renal clearance / excretion compared to MAG3 ([1]; vs ^99m Tc MAG3): even more rapidly excreted by the kidneys than ^99m Tc MAG3

Compound: ^99m Tc L,L-ethylenedicysteine diethyl ester [LL-ECD]
Brain perfusion agent [14]: good brain perfusion agent

Compound: ^99m Tc mercaptoacetylglycylglycyl-L-alanine [MAG2-Ala]
Characteristics as imaging agents [15]: promising characteristics as imaging agents

Compound: ^99m Tc mercaptoacetylglycylglycyl-L-asparagine [MAG2-Asn]
Characteristics as imaging agents [15]: promising characteristics as imaging agents

Compound: ^99m Tc mercaptoacetylglycylglycyl-L-glutamine [MAG2-Gln]
Characteristics as imaging agents [15]: promising characteristics as imaging agents

Compound: ^99m Tc mercaptoacetylglycylglycyl-taurine
Comparison to MAG3 in dogs [16]: inferior to ^99m Tc MAG3 in dogs

Renal clearance / excretion compared to MAG3 ([1]; vs ^99m Tc MAG3): superior renal clearance
Compound: thioacetamidethiourea-ethylCOOH [TATU-EtCOOH]

Rate of renal clearance [1]: cleared at a moderate rate
Compound: thioacetamidethiourea-para-phenylCOOH [TATU-pPhCOOH]
